Measured values reported in patent publication US20100144779A1, “Marine Alkalod Makaluvamines and Derivatives Thereof” (THE UAB RESEARCH FOUNDATION, priority 2007, published 2010).
Read-outs that look alike come from different tables or passages of the source.

Key:
Type in all cases: cell-based, human
[1] = tested on: p21; experiment: Protein expression, Western blot in MCF-7 cells; details: 1 μM, 6 h (FIG. 4A)
Description: (§1) In FIG. 4A, MCF-7 cells were exposed to 1 μM concentration of the indicated compounds for 6 hours. Western blots were probed with antibodies specific for the proteins indicated. Numbers below each lane show densitometry readings for each lane as compared to control. […] Western blots were probed with antibodies specific for the proteins indicated.
(§2) To determine the disclosed compounds effect on protein expression in human breast cancer cells, cultured MCF-7 cells were exposed to various concentrations of the test compounds for 6 h (FIG. 4A) or 24 h (FIG. 4B). Cell lysates were fractionated with identical amounts of protein by SDS-PAGE and transferred to Bio-Rad trans-Blot nitrocellulose membranes (Bio-Rad Laboratories, Hercules, Calif.). The nitrocellulose membrane was incubated in blocking buffer (Tris-buffered saline containing 0.1% Tween 20 and 5% nonfat milk) for 1 h at room temperature, then with the appropriate primary antibody overnight at 4° C. or 2 h at room temperature with gentle shaking. Finally, the membrane was washed three times with the washing buffer (Tris-buffered saline containing 0.1% Tween 20) for 15 min, incubated with goat anti mouse/rabbit IgG-horseradish peroxidase-conjugated antibody (Bio-Rad) for 1 h at room temperature, and washed again (in triplicate). The protein of interest was detected by enhanced chemiluminescence reagents from PerkinElmer LAS, Inc (Boston, Mass.).

[2] = tested on: MCF-7; experiment: XTT cytotoxicity assay; details: XTT
Description: (§3) In initial experiments, compounds 4a-g and 7c-g were evaluated for their cytotoxicity against human breast cancer cell lines MCF-7 and MDA-MB-468 and human colon cancer cell line HCT-116. The makaluvamine compounds provided in Table 2 were also evaluated for their cytotoxicity against human breast cancer cell lines MCF-7. Compound nos. 8 and 27-33 were not evaluated in this experiment. Cells were obtained from ATCC (Manassas, Va.). For each derivative the IC50 value was determined using data generated from 2-4 independent tetrazolium-based (XTT) cytotoxicity assays (R & D Systems Inc., Minneapolis, Minn.) according to the manufacturer's instructions. […] MCF-7, MDA-MD-468 and HCT-116 cells were grown at 37 degrees C. in a humidified atmosphere with complete growth media supplemented with fetal bovine serum. Growth media was changed 2-3 times per week as required.

[3] = tested on: p53; experiment: Protein expression, Western blot in MCF-7 cells; details: 1 μM, 6 h (FIG. 4A)
Description: as §1, §2

[4] = tested on: MCF7 cells; experiment: MTT growth inhibition assay; details: for IC50: Homo sapiens, read-out: Growth inhibitory activity (IC50) in MCF7 cells
Description: The cell lines were obtained from the American Type Culture Collection (Rockville, Md.) and were grown as follows: MCF-7 (p53 wt) breast cancer cells were grown in DMEM media containing 1 mM non-essential amino acids, Earle's BSS, 1 mM Na pyruvate, and 10 mg/L bovine insulin.
All media contained 10% FBS and 1% penicillin/streptomycin unless otherwise specified. The effects of disclosed compounds on human cancer cell growth, expressed as the percentage of cell survival, were determined by the MTT [3-(4,5-Dimethyl-2-thiazolyl)-2,5-diphenyl-2H-tetrazolium bromide] assay. Cells were grown in 96-well plates and exposed to the test compounds (0, 0.01, 0.1, 1, 10, 100 μM) for 72 hr followed by addition of 10 μL MTT solution (5 mg/mL; Sigma; St. Louis, Mo.) to each well. The plates were incubated for 2-4 hr at 37° C. The supernatant was then removed and formazan crystals were dissolved with 100 μL of DMSO. The absorbance at 570 nm was recorded with an OPTImax microplate reader (Molecular Devices; Sunnyvale, Calif.). The cell survival percentages were calculated by dividing the mean OD of compound containing wells by that of DMSO-control wells. Three separate experiments were accomplished to determine the IC50.

[5] = tested on: HCT-116; experiment: XTT cytotoxicity assay; details: average ± standard deviation of 2-4 independent assays, read-out: Inhibition of Cancer Cell Proliferation (IC50) HCT-116
Description: as §3

[6] = tested on: MDA-MB-468; experiment: XTT cytotoxicity assay; details: average ± standard deviation of 2-4 independent assays, read-out: Inhibition of Cancer Cell Proliferation (IC50) MDA-MB-468
Description: as §3

[7] = tested on: MDM2; experiment: Protein expression, Western blot in MCF-7 cells; details: 1 μM, 6 h (FIG. 4A)
Description: as §1, §2

[8] = Homo sapiens, MCF7, Table 2, read-out: IC50 (μM) MCF-7
[9] = Table 2, read-out: IC50 (μM) MCF-7
[10] = average ± standard deviation of 2-4 independent assays, read-out: Inhibition of Cancer Cell Proliferation (IC50) MCF-7

SMILES | expression of p21 [1] | IC50 [2, 8] [µM] | IC50 [2, 9] [µM] | expression of p53 [3] | IC50 ([4]; MCF7, Table 5, MTT, 72 hr) [nM] | Growth inhibitory activity (IC50) in MCF7 cells ([4]; Table 5, MTT, 72 hr) | also measured
Cc1ccc(S(=O)(=O)n2cc3c4c2C(=O)C(NCc2ccc5c(c2)OCO5)=CC4=NCC3)cc1.O=C(O)C(F)(F)F [Compound 1] | increased the expression | < 1 | 0.78 |  |  |  | 
O=C(O)C(F)(F)F.O=C1C(NCc2ccc3c(c2)OCO3)=CC2=NCCc3c[nH]c1c32 [Compound 2] | decreased the expression | 5 to 15 | 5.22 | increased the expression | 809 | nM range | 
COC1=CC(CNC2=CC3=NCCc4cn(S(=O)(=O)c5ccc(C)cc5)c(c43)C2=O)=CC(OC)C1OC (stereo not shown) [Compound 3] |  | < 1 | 0.96 |  |  |  | 
COC1=CC(CNC2=CC3=NCCc4c[nH]c(c43)C2=O)=CC(OC)C1OC.O=C(O)C(F)(F)F (stereo not shown) [Compound 4] |  | 30.5 |  | increased the expression | 515 |  | 
Cc1ccc(S(=O)(=O)n2cc3c4c2C(=O)C(NCCc2ccc5c(c2)OCO5)=CC4=NCC3)cc1.O=C(O)C(F)(F)F [Compound 5] | increased the expression |  |  | increased the expression | 1620 | μM range | 
Cc1ccc(S(=O)(=O)n2cc3c4c2C(=O)C(NCCc2ccc([N+](=O)[O-])cc2)=CC4=NCC3)cc1 [Compound 7] |  | < 1 | > 1 |  |  |  | 
Cc1ccc(S(=O)(=O)n2cc3c4c2C(=O)C(NCCc2ccccc2)=CC4=NCC3)cc1 [Compound 7d] |  |  |  |  |  |  | IC50 [2, 10]: 1.5 ± 0.1 µM; IC50 [5]: 500 nM; IC50 [6]: 800 ± 100 nM
Cc1ccc(S(=O)(=O)n2cc3c4c2C(=O)C(NCCc2cc(Br)c(O)c(Br)c2)=CC4=NCC3)cc1 [Compound 7f] |  |  |  |  |  |  | IC50 [2, 10]: 2.3 ± 1.1 µM; IC50 [5]: 1000 ± 200 nM; IC50 [6]: 1500 ± 900 nM
Cc1ccc(S(=O)(=O)n2cc3c4c2C(=O)C(NCCc2c[nH]c5ccccc25)=CC4=NCC3)cc1 [Compound 7g] |  |  |  |  |  |  | IC50 [2, 10]: 1.2 ± 0.03 µM; IC50 [5]: 800 ± 300 nM; IC50 [6]: 1400 ± 900 nM
O=C(O)C(F)(F)F.O=C1C(NCCc2ccc([N+](=O)[O-])cc2)=CC2=NCCc3c[nH]c1c32 [Compound 8] | decreased the expression |  |  | decreased the expression | 427 | nM range | expression of MDM2 [7]: inhibited the expression
Cc1ccc(CNC2=CC3=NCCc4cn(S(=O)(=O)c5ccc(C)cc5)c(c43)C2=O)cc1 [Compound 9] |  | 1 to 5 | 1.48 |  |  |  | 
Cc1ccc(CNC2=CC3=NCCc4c[nH]c(c43)C2=O)cc1 [Compound 10] |  | 1 to 5 | 1.69 |  |  |  | 
Cc1ccc(CCNC2=CC3=NCCc4cn(S(=O)(=O)c5ccc(C)cc5)c(c43)C2=O)cc1 [Compound 11] |  | 1 to 5 | 1.47 |  |  |  | 
Cc1ccc(CCNC2=CC3=NCCc4c[nH]c(c43)C2=O)cc1.O=C(O)C(F)(F)F [Compound 12] | decreased the expression |  |  | increased the expression | 833 | nM range | expression of MDM2 [7]: inhibited the expression
COc1ccc(CNC2=CC3=NCCc4cn(S(=O)(=O)c5ccc(C)cc5)c(c43)C2=O)cc1 [Compound 13] |  | 1 to 5 | 1.02 |  |  |  | 
COc1ccc(CCNC2=CC3=NCCc4cn(S(=O)(=O)c5ccc(C)cc5)c(c43)C2=O)cc1.O=C(O)C(F)(F)F [Compound 15] | decreased the expression | 1 to 5 | 1.33 | decreased the expression | 1050 | μM range | expression of MDM2 [7]: inhibited the expression
COc1ccc(CCNC2=CC3=NCCc4c[nH]c(c43)C2=O)cc1.O=C(O)C(F)(F)F [Compound 16] | decreased the expression |  |  | decreased the expression | 200 | nM range | expression of MDM2 [7]: inhibited the expression
COc1ccc(CNC2=CC3=NCCc4cn(S(=O)(=O)c5ccc(C)cc5)c(c43)C2=O)cc1OC.O=C(O)C(F)(F)F [Compound 17] | increased the expression | < 1 | 0.65 | increased the expression | 1010 | μM range | 
COc1ccc(CNC2=CC3=NCCc4c[nH]c(c43)C2=O)cc1OC [Compound 18] |  | 5 to 15 | 5.98 |  |  |  | 
COc1ccc(CCNC2=CC3=NCCc4cn(S(=O)(=O)c5ccc(C)cc5)c(c43)C2=O)cc1OC [Compound 19] |  | < 1 | > 1 |  |  |  | 
Cc1ccc(S(=O)(=O)n2cc3c4c2C(=O)C(NCc2ccc(Cl)cc2)=CC4=NCC3)cc1.O=C(O)C(F)(F)F [Compound 21] | decreased the expression | < 1 | 0.83 | decreased the expression | 774 | nM range | expression of MDM2 [7]: inhibited the expression
O=C1C(NCc2ccc(Cl)cc2)=CC2=NCCc3c[nH]c1c32 [Compound 22] |  | 1 to 5 | 1.33 |  |  |  | 
Cc1ccc(S(=O)(=O)n2cc3c4c2C(=O)C(NCCc2ccc(Cl)cc2)=CC4=NCC3)cc1 [Compound 23] |  | 1 to 5 | 1.55 |  |  |  | 
O=C(O)C(F)(F)F.O=C1C(NCCc2ccc(Cl)cc2)=CC2=NCCc3c[nH]c1c32 [Compound 24] | decreased the expression |  |  | increased the expression | 584 | nM range | expression of MDM2 [7]: inhibited the expression
O=C(O)C(F)(F)F.O=C1C(NCCc2ccc(Cl)c(Cl)c2)=CC2=NCCc3c[nH]c1c32 [Compound 26] | increased the expression |  |  | increased the expression |  | nM range | IC50 ([4]; MCF7, 72 h): 495 nM
Cc1ccc(S(=O)(=O)n2cc3c4c2C(=O)C(NCCc2ccc(F)cc2)=CC4=NCC3)cc1.O=C(O)C(F)(F)F [Compound 29] | increased the expression |  |  | increased the expression | 1920 | μM range | 
O=C(O)C(F)(F)F.O=C1C(NCCc2ccc(F)cc2)=CC2=NCCc3c[nH]c1c32 [Compound 30] | increased the expression |  |  | increased the expression | 787 | nM range | 
